Data set [1] has as its system Gerbillinae. Briefly: In-vivo receptor occupancy at SERT in gerbil at 3 to 30 mg/kg, po measured after 4 hrs. It counts as functional, organism-based.
Data set [2] in a line: Displacement of [3H]-citalopram from gerbil SERT expressed in HEK293 cell membranes incubated for 60 mins by liquid scintillation counting method. Also on record: species or system Gerbillinae.
For data set [3], the target named is Substance-P receptor (Meriones unguiculatus, UniProt Q5DUB1). The data set can be described thus: Displacement of [125I]-substance P from gerbil NK1 receptor expressed in HEK293 cell membranes incubated for 30 mins by liquid scintillation counting method. Also on record: species or system Gerbillinae.
Data set [4] has as its system Gerbillinae. Briefly: Inhibition of foot tapping in gerbil foot tap model at 10 mg/kg, po and treated with 3 pmol, icv GR-73632 and measured for 5 mins after animal regains righting reflex. It counts as functional.
In data set [5] the test system is Gerbillinae. The data set can be described thus: In-vivo receptor occupancy at SERT in gerbil at 30 mg/kg, po measured after 4 hrs. Type of data set: functional.
Data set [6] can be described thus: Plasma concentration in gerbil foot tap model at 10 mg/kg, po. Type of data set: ADME, organism-based. The following applies: gerbillinae, in vivo.
The target in data set [7] is Substance-P receptor (Homo sapiens, UniProt P25103). Briefly: Binding affinity to human NK1 receptor.
Another data set has as its system HEK293. Briefly: Selectivity index, ratio of IC50 for gerbil SERT expressed in HEK293 cell membranes to IC50 for gerbil NK1 receptor expressed in HEK293 cell membranes. It counts as cell-based. The following applies: Gerbillinae.
A short description of data set [8]: Drug concentration in brain of gerbil foot tap model at 10 mg/kg, po. It counts as ADME, organism-based. The following applies: gerbillinae, in vivo, read-out: Drug uptake.
Data set [9] deals with Gerbillinae. Briefly: In-vivo receptor occupancy at SERT in gerbil at 3 mg/kg, po measured after 4 hrs. Type of data set: functional.
Data set [10] concerns Gerbillinae. Briefly: In-vivo receptor occupancy at NK1 receptor in gerbil at 3 to 30 mg/kg, po measured after 4 hrs. Type of data set: functional.
The nature of data set [11]: Ratio of drug concentration in brain to plasma of gerbil foot tap model at 10 mg/kg, po. It counts as ADME, organism-based. The following applies: gerbillinae, read-out: BPR.

Each structure is given as a SMILES string.

Chain of Substance-P receptor (Meriones unguiculatus, UniProt Q5DUB1) (Q5DUB1 whole entry): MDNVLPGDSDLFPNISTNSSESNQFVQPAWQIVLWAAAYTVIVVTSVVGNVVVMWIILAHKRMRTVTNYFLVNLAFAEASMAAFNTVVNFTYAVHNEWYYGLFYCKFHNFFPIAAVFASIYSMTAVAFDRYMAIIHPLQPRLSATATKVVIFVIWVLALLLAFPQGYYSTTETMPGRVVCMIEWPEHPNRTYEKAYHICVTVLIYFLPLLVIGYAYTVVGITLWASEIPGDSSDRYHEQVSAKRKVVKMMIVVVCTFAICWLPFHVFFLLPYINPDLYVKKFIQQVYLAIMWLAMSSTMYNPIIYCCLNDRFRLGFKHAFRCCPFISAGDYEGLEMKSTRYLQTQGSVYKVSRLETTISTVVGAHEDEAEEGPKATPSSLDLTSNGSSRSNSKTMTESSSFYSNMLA
Chain of Substance-P receptor (Homo sapiens, UniProt P25103) (P25103 whole entry): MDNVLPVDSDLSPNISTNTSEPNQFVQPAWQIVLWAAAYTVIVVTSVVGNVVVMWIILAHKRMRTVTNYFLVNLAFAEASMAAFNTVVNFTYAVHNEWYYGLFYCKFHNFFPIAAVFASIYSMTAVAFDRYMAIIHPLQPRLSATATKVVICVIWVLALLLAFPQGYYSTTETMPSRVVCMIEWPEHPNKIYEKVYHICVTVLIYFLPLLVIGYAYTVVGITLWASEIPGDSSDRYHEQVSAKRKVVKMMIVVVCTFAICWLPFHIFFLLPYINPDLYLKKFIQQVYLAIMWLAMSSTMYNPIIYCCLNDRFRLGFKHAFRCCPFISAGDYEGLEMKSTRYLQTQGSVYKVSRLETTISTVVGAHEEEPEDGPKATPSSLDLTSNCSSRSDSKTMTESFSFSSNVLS

Turning to `CN1CCC(COCc2cc(-c3ccc(C#N)cc3)cc(C(F)(F)F)c2)(c2ccccc2)CC1`, the Occ entry is “Dose-dependent effect” with Gerbillinae [1], 84% in the data set with Gerbillinae [5], 11% in the data set on Gerbillinae [9] and 88% in the data set on Gerbillinae [10]. The figures for the IC50 (in data set [2]; at Substance-P receptor [3]; at Substance-P receptor [7]) were 9.5 nM, 0.29 nM and 0.2 nM, respectively. For the same compound, in the data set on Gerbillinae [4], the inhibition in vivo at 10 mg/kg amounted to 73%. The concentration in [6] was 526 nM; in data set [8], 1300 nM. In the data set with HEK293, the Ratio IC50 turned out to be 33. Besides, the Kp in [11] turned out to be 2.5.
`N#Cc1ccc(-c2cc(COCC3(c4ccccc4)CCNCC3)cc(C(F)(F)F)c2)cc1`: the IC50 turned out to be 4 nM in [2], 0.45 nM at Substance-P receptor [3] and 0.59 nM on Substance-P receptor [7]. Also, the inhibition in vivo at 10 mg/kg in the data set on Gerbillinae [4] was found to be 29%. The concentration in [6] came out at 365 nM; in data set [8], 190 nM. Besides, the Ratio IC50 in the data set on HEK293 was determined as 9. For the same compound, the Kp in data set [11] amounted to 0.52.
For the compound `Fc1ccccc1-c1cc(COCC2(c3ccccc3)CCNCC2)cc(C(F)(F)F)c1`, the IC50 in data set [2] amounted to 7.6 nM; at Substance-P receptor [3] it was 23 nM. Further, the Ratio IC50 in the data set with HEK293 came out at 0.3.
Regarding `FC(F)(F)c1cc(COCC2(c3ccccc3)CCNCC2)cc(-c2ccccc2)c1`, the IC50 in data set [2] amounted to 3.7 nM; on Substance-P receptor [3], 6.3 nM. In addition, the Ratio IC50 in the data set on HEK293 stood at 0.6.
In the case of `Cc1cccc(-c2cc(COCC3(c4ccccc4)CCNCC3)cc(C(F)(F)F)c2)c1`, the IC50 in data set [2] is 14 nM; on Substance-P receptor [3], 24 nM. For the same compound, the Ratio IC50 in the data set with HEK293 stood at 0.6.
Take `N#Cc1ccc(-c2cc(COCC3(c4ccccc4)CCNCC3)cc(C(F)(F)F)c2)cn1`: the IC50 in data set [2] was 10 nM; on Substance-P receptor [3], 1.9 nM. Also, the Ratio IC50 with HEK293 stood at 5.
For `FC(F)(F)c1cc(COCC2(c3ccccc3)CCNCC2)cc(-c2cccc3ccccc23)c1` the same measures were 120 nM, 540 nM and 0.2.
For `Nc1cccc(-c2cc(COCC3(c4ccccc4)CCNCC3)cc(C(F)(F)F)c2)c1` the same measures were 30 nM, 25 nM and 1.
For `FC(F)(F)c1cc(COCC2(c3ccccc3)CCNCC2)cc(-c2ccc(Cl)cc2)c1` the same measures were 1.8 nM, 2.8 nM and 0.6.
As to `COc1ccccc1-c1cc(COCC2(c3ccccc3)CCNCC2)cc(C(F)(F)F)c1`, the IC50 in data set [2] was 4.2 nM; on Substance-P receptor [3] it was 54 nM. The Ratio IC50 in the data set on HEK293 was determined as 0.1.
In the same order, the values of `FC(F)(F)c1cc(COCC2(c3ccccc3)CCNCC2)cc(-c2ccccn2)c1` are 7.4 nM, 41 nM and 0.2.
For `N#Cc1ccc(-c2cc(COCC3(c4ccccc4)CCN(C4CC4)CC3)cc(C(F)(F)F)c2)cc1` the same measures were 2100 nM, 1.8 nM and 1200.
For `Oc1ccc(-c2cc(COCC3(c4ccccc4)CCNCC3)cc(C(F)(F)F)c2)cc1` the same measures were 27 nM, 3.6 nM and 8.
Consider `Cc1nnnn1-c1cc(COCC2(c3ccccc3)CCNCC2)cc(C(F)(F)F)c1`, for which the IC50 in data set [2] was 70 nM; at Substance-P receptor [3], 180 nM. For the same compound, the Ratio IC50 in the data set on HEK293 amounted to 0.4.
In the same order, the values of `N#Cc1c(F)cc(-c2cc(COCC3(c4ccccc4)CCNCC3)cc(C(F)(F)F)c2)cc1F` are 7 nM, 0.32 nM and 22.

These data come from ChEMBL document CHEMBL3596162, “Biaryls as potent, tunable dual neurokinin 1 receptor antagonists and serotonin transporter inhibitors” (Bioorg Med Chem Lett, 2015).
